Experimental data: paper PMC7203344, “Sirtuin 1 Inhibiting Thiocyanates (S1th)—A New Class of Isotype Selective Inhibitors of NAD^+ Dependent Lysine Deacetylases” (Frontiers in Oncology, 2020)

Assays:
MCF7 cells = test: Cell proliferation assay with MCF7 cells; type: cell-based, human; settings: concentrations as for HeLa
Description: 1.5 × 10^4 cells/well were seeded in 24-well plates and grown in DMEM 10% in presence of DMSO, 20 μM EX-527, 12 μM S1th 13, 20 μM S1th 12, or 30 μM S1th 10. The growth media containing the drugs was replaced every 48 h. Cells were collected and counted at the indicated times starting 24 h after seeding (0, 24, 48, 72, 96, and 120 h). The experiment was performed twice in duplicates.

HeLa cells = test: Wound healing assay with HeLa cells; type: cell-based, human; settings: 24 h; S1th 13 12 μM
Description: For wound healing assay 6 × 10^5 cells per well were seeded in 6-well plates and grown for 24 h in DMEM containing 10% FBS. After 24 h, a lineal gap between cells was created in the middle of the plate by scratching the cell monolayer with a 1 mL pipette tip in the same position in each well. Once the scratching is done, plates were washed twice with PBS and then grown in DMEM containing 1% FBS and the drugs in the same concentrations as for the proliferation assay. As described previously, the growth media 1% FBS containing the drugs was replaced every 48 h. Images were acquired in an Optimal microscope (Leica microscopes, DE) using Leica Application Suite X (LAS X) every 24 h (0, 24, 48, and 72 h) until the gap closed. The quantification of the area of the gap at the indicated times was performed with Image J-MRI Wound Healing Tool. The experiment was performed only once.

human Sirt3 = molecular target: T1, human Sirt3 (Homo sapiens, UniProt Q9NTG7); test: Homogeneous ZMAL-based fluorescence assay, Sirt3; type: biochemical; settings: 4th round
T1 construct: Human Sirt3_118−395 was expressed and purified as described previously; made in house
T1 sequence (Q9NTG7 118-395): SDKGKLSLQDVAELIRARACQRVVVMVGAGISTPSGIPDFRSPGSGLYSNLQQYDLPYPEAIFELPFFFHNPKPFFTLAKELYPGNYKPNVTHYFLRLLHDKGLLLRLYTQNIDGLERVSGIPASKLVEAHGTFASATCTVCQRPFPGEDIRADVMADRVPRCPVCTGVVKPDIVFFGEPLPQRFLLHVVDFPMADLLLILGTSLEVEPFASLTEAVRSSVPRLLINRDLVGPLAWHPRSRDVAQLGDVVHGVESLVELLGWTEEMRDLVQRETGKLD
Description: Recombinant human Sirt5_37−310 was purchased readily in Tris Buffer [25 mM Tris, 100 mM NaCl, 5 mM DTT, 10% glycerol (v/v)] from Enzo Life Sciences (NY, USA). Human Sirt3_118−395 was expressed and purified as described previously ([54]). For expression of human Sirt1_134−747 and Sirt2_56−356 chemically competent cells of E. coli BL21 Star (DE3) were transformed with the expression vectors pET30S-hSirt1_134−747 or pET30S-hSirt2_56−356. Bacteria were grown at 37°C in 2×YT medium supplemented with 50 μg·mL^−1 of kanamycin to an OD600 of 0.6. Then isopropyl-β-D-1-thiogalactopyranoside (IPTG) was added to a final concentration of 1 mM to induce gene expression. After further cultivation at 20°C for 12 h, the cells were harvested by centrifugation for 15 min at 5,000 g. The cells were resuspended in lysis buffer [100 mM Tris/HCl buffer at pH 8.0, 150 mM NaCl and 10% (v/v) glycerol] and disrupted by ultrasonication (Branson Digital Sonifier 250) at 70% amplitude for 10 min (3 s working, 10 s pause). The crude extract was cleared by centrifugation at 100,000 g for 1 h, and the supernatant was loaded onto a Strep-Tactin Superflow cartridge (5 ml bed volume, IBA Lifescience, Germany). Target proteins were eluted with lysis buffer containing 5 mM D-Desthiobiotin (IBA Lifescience, Germany) and further separated by size-exclusion chromatography (Superdex S200 26/60, GE Healthcare, IL, USA) equilibrated in Tris/HCl buffer (20 mM, 150 mM NaCl, pH 8.0). Pure protein was concentrated by ultrafiltration, flash-frozen in liquid nitrogen and stored at −80°C until further use. Identity as well as purity were verified by SDS-PAGE ([55]) and protein concentration was determined by the bicinchoninic acid (BCA) method, using bovine serum albumin (BSA) as a standard ([56]). Deacetylase activity was confirmed to be NAD^+-dependent and could be inhibited with the physiological sirtuin inhibitor nicotinamide.
All compounds were tested in the trypsin-coupled high-throughput ZMAL-assay in black 96-well plates (OptiPlateTM−96F, black, 96 well, Pinch bar design, PerkinElmer, USA), using ZMAL (Z-Lys(acetyl)-AMC) as a substrate ([57]). Sirt1_134−747, Sirt2_56−356, and Sirt3_118−395 were mixed with 5 μL substrate (10.5 μM final assay concentration, diluted from a […] stock in DMSO) and 3 μL Inhibitor in DMSO at various concentrations or DMSO as a control [final DMSO concentration 5% (v/v)]. The mixture was supplemented with assay buffer (50 mM Tris/HCl, 137 mM NaCl, 2.7 mM KCl, 1 mM MgCL2, pH 8.0) to a total volume of 55 μL. Enzyme concentration was adjusted to get a final conversion of 20–30%. Addition of 5 μL NAD^+ (6 mM in assay buffer, final assay concentration of 500 μM) initiated the catalytic reaction and the plates were incubated at 37°C for 4 h with agitation at 140 rpm. The catalytic reaction was stopped by addition of 60 μL stop solution [50 mM Tris, 100 mM NaCl, 6.7% (V/V) DMSO, 5.5 U/μL trypsin, 8 μM nicotinamide, pH 8.0]. The plate was again incubated at 37°C and 140 rpm for 20 min to release free AMC from the deacetylated substrate by trypsin digestion. Afterwards, fluorescence intensity was measured in a microplate reader (λEx = 390 nm, λEm = 460 nm, BMG POLARstar Optima, BMG Labtech, Germany). An enzyme-free blank control and a 100% conversion control containing AMC instead of ZMAL were measured in addition. Inhibition was calculated in % in relation to a DMSO control after blank signal subtraction and IC50 values were determined using a non-linear regression to fit the dose-response curve with OriginPro 9G (OriginLab, USA). Pre-tests as well as IC50 determination was carried out at least twice in duplicates.

SMILES	inhibition at 50 µM (human Sirt3)	cell proliferation of MCF7 cells (MCF7 cells)	lower reduction of total wound area compared to control without drug (HeLa cells)
N#CSc1cc(SC#N)c(N)nc1N [PR-619, reference compound]	< 10%	–	–
N#CSc1cccc(NC(=O)[C@H]2CC=CC[C@H]2C(=O)O)c1 [S1th 10]	< 10%	most effective	–

The next lines start with results.

inhibition at 50 µM (human Sirt3)	SMILES	cell proliferation of MCF7 cells (MCF7 cells)	lower reduction of total wound area compared to control without drug (HeLa cells)
< 10%	N#CSc1cccc(NS(=O)(=O)c2ccc3c(c2)OCCO3)c1 [S1th 13]	most effective	~ 50%
< 10%	CCCCNC(=O)Nc1cccc(SC#N)c1 [S1th 11]	–	–
< 10%	COc1ccc(SC#N)cc1OCC(=O)N(CCC#N)CCC#N [S1th 12]	only have a mild effect	–
